# Key:
# bedstraw = experiment: Test B pre/postemergence bedstraw; assay type: in vivo, Galium aparine; settings: Preemergence
# Summary of the method: (§1)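 Herbicidal effect was estimated by eye on a ten-point control scale after plants spent twelve to sixteen days in a greenhouse following soil or foliar treatment. Foliar sprays targeted plants at one to four leaves; all doses were formulated in a non-phytotoxic solvent with surfactant.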
# blackgrass = experiment: Test B pre/postemergence blackgrass; assay type: in vivo, Alopecurus myosuroides
# Summary of the method: as §1
# surinam grass = experiment: Test B pre/postemergence surinam grass; assay type: in vivo, Brachiaria decumbens
# Summary of the method: as §1
# cocklebur = experiment: Test B pre/postemergence cocklebur; assay type: in vivo, Xanthium strumarium
# Summary of the method: as §1
# corn = experiment: Test B pre/postemergence corn; assay type: in vivo, Zea mays
# Summary of the method: as §1
# crabgrass = experiment: Test B pre/postemergence crabgrass; assay type: in vivo, Digitaria sanguinalis
# Summary of the method: as §1
# giant foxtail = experiment: Test B pre/postemergence giant foxtail; assay type: in vivo, Setaria faberii
# Summary of the method: as §1
# morningglory = experiment: Test B pre/postemergence morningglory; assay type: in vivo, Ipomoea hederacea
# Summary of the method: as §1
# pigweed = experiment: Test B pre/postemergence pigweed; assay type: in vivo, Amaranthus retroflexus
# Summary of the method: as §1
# rape = experiment: Test B pre/postemergence rape; assay type: in vivo, Brassica napus
# Summary of the method: as §1
# soybean = experiment: Test B pre/postemergence soybean; assay type: in vivo, Glycine max
# Summary of the method: as §1
# sugar beet = experiment: Test B pre/postemergence sugar beet; assay type: in vivo, Beta vulgaris
# Summary of the method: as §1
# velvetleaf = experiment: Test B pre/postemergence velvetleaf; assay type: in vivo, Abutilon theophrasti
# Summary of the method: as §1
# wheat = experiment: Test B pre/postemergence wheat; assay type: in vivo, Triticum aestivum
# Summary of the method: as §1
# wild oat = experiment: Test B pre/postemergence wild oat; assay type: in vivo, Avena fatua
# Summary of the method: as §1
# purple nutsedge = experiment: Test B pre/postemergence purple nutsedge; assay type: in vivo, Cyperus rotundus
# Summary of the method: as §1
# rice = experiment: Test B flood test rice; assay type: in vivo, Oryza sativa
# Summary of the method: (§2)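 Read-out is a visual response score from 0 (no effect) to 10 (complete control), assigned by comparison with untreated controls. Treatment was applied at the 2-leaf stage, and plants stayed in the greenhouse for twelve to sixteen days before scoring.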
# smallflower flatsedge = experiment: Test B flood test smallflower flatsedge; assay type: in vivo, Cyperus difformis
# Summary of the method: as §2
# duck salad = experiment: Test B flood test duck salad; assay type: in vivo, Heteranthera limosa
# Summary of the method: as §2
# bamyardgrass = experiment: Test B flood test barnyardgrass; assay type: in vivo, Echinochloa crus-galli
# Summary of the method: as §2
# [1] = Postemergence, Rate 62 g/ha, scale of 0 to 10, 0 is no effect, 10 is complete control
# [2] = Postemergence, Rate 125 g/ha, scale of 0 to 10 where 0 is no effect and 10 is complete control
# [3] = Postemergence, Rate 250 g/ha, scale of 0 to 10, 0 is no effect, 10 is complete control
# [4] = Postemergence, Rate 500 g/ha, scale of 0 to 10 where 0 is no effect and 10 is complete control
# [5] = Preemergence, Rate 62 g/ha, scale 0 to 10 (0 no effect, 10 complete control)
# [6] = Preemergence, Rate 125 g/ha, scale of 0 to 10 where 0 is no effect and 10 is complete control
# [7] = Preemergence, Rate 500 g/ha, scale of 0 to 10 where 0 is no effect and 10 is complete control
# [8] = Rate 62 g/ha, flood test species, Pre-emergence, visual evaluation after twelve to sixteen days
# [9] = Rate 125 g/ha, under heading Pre-emergence, flood test species, visual evaluation after twelve to sixteen days
# [10] = Rate 250 g/ha, Pre-emergence (flood test species), scale 0 to 10, 0 is no effect, 10 is complete control
# [11] = Rate 500 g/ha, Pre-emergence section of Table B, 0 to 10 scale (0 no effect, 10 complete control)
compound,measurement,setting,value
CC(=O)OCC(CCl)n1c(=O)on(C(=O)N(c2ccc(F)cc2)C(C)C)c1=O (centres unmarked) [Compound 596],Bedstraw plant response rating,"bedstraw; Rate 62 g/ha, scale 0 to 10 (0 no effect, 10 complete control)",0
same,Bedstraw plant response rating,"bedstraw; Rate 125 g/ha, scale of 0 to 10 where 0 is no effect and 10 is complete control",0
same,Bedstraw plant response rating (0 to 10 scale),bedstraw; Rate 250 g/ha,0
same,Bedstraw plant response rating,"bedstraw; Rate 500 g/ha, scale of 0 to 10 where 0 is no effect and 10 is complete control",0
same,Blackgrass plant response rating,blackgrass; [1],0
same,"Plant response rating, Blackgrass",blackgrass; [2],0
same,Blackgrass plant response rating,blackgrass; [3],0
same,"Plant response rating, Blackgrass",blackgrass; [4],0
same,Blackgrass plant response rating,blackgrass; [5],0
same,Blackgrass plant response rating,blackgrass; [6],0
same,Blackgrass plant response rating (0 to 10 scale),"blackgrass; Preemergence, Rate 250 g/ha",0
same,Blackgrass plant response rating,blackgrass; [7],0
same,B. signalgrass plant response rating,surinam grass; [1],0
same,"Plant response rating, B. signalgrass",surinam grass; [2],0
same,B. signalgrass plant response rating,surinam grass; [3],0
same,"Plant response rating, B. signalgrass",surinam grass; [4],0
same,B. signalgrass plant response rating,surinam grass; [5],0
same,B. signalgrass plant response rating,surinam grass; [6],0
same,"B. signalgrass plant response rating (0 to 10 scale, 0 is no effect, 10 is complete control)","surinam grass; Preemergence, Rate 250 g/ha",0
same,B. signalgrass plant response rating,surinam grass; [7],0
same,Cocklebur plant response rating,cocklebur; [1],0
same,"Plant response rating, Cocklebur",cocklebur; [2],0
same,Cocklebur plant response rating,cocklebur; [3],0
same,"Plant response rating, Cocklebur",cocklebur; [4],0
same,Cocklebur plant response rating,cocklebur; [5],0
same,Cocklebur plant response rating,cocklebur; [6],0
same,Cocklebur plant response rating (0 to 10 scale),"cocklebur; Preemergence, Rate 250 g/ha",0
same,"Plant response rating, Cocklebur",cocklebur; [7],0
same,Corn plant response rating,corn; [1],0
same,"Plant response rating, Corn",corn; [2],0
same,Corn plant response rating,corn; [3],0
same,"Plant response rating, Corn",corn; [4],0
same,Corn plant response rating,corn; [5],0
same,Corn plant response rating,corn; [6],0
same,Corn plant response rating (0 to 10 scale),"corn; Preemergence, Rate 250 g/ha",0
same,"Plant response rating, Corn",corn; [7],0
same,Crabgrass plant response rating,crabgrass; [1],0
same,"Plant response rating, Crabgrass",crabgrass; [2],0
same,Crabgrass plant response rating,crabgrass; [3],0
same,"Plant response rating, Crabgrass",crabgrass; [4],2
same,Crabgrass plant response rating,crabgrass; [5],0
same,Crabgrass plant response rating,crabgrass; [6],0
same,"Plant response rating, Crabgrass",crabgrass; [7],6
same,Giant foxtail plant response rating,giant foxtail; [1],0
same,"Plant response rating, Giant foxtail",giant foxtail; [2],0
same,Giant foxtail plant response rating,giant foxtail; [3],0
same,"Plant response rating, Giant foxtail",giant foxtail; [4],3
same,Giant foxtail plant response rating,giant foxtail; [5],0
same,Giant foxtail plant response rating,giant foxtail; [6],0
same,"Plant response rating, Giant foxtail",giant foxtail; [7],4
same,Morningglory plant response rating,morningglory; [1],0
same,"Plant response rating, Morningglory",morningglory; [2],0
same,Morningglory plant response rating,morningglory; [3],0
same,"Plant response rating, Morningglory",morningglory; [4],2
same,Morningglory plant response rating,morningglory; [5],0
same,Morningglory plant response rating,morningglory; [6],0
same,"Plant response rating, Morningglory",morningglory; [7],0
same,"Plant response rating, Redroot pigweed",pigweed; [2],0
same,Redroot pigweed plant response rating,pigweed; [3],0
same,"Plant response rating, Redroot pigweed",pigweed; [4],0
same,Redroot pigweed plant response rating,pigweed; [5],0
same,Redroot pigweed plant response rating,pigweed; [6],0
same,"Plant response rating, Redroot pigweed",pigweed; [7],0
same,Rape plant response rating,rape; [1],0
same,"Plant response rating, Rape",rape; [2],0
same,Rape plant response rating,rape; [3],0
same,"Plant response rating, Rape",rape; [4],0
same,Rape plant response rating,rape; [5],0
same,Rape plant response rating,rape; [6],0
same,"Plant response rating, Rape",rape; [7],0
same,"Plant response rating, Soybean",soybean; [2],2
same,Soybean plant response rating,soybean; [3],2
same,"Plant response rating, Soybean",soybean; [4],3
same,Soybean plant response rating,soybean; [5],0
same,Soybean plant response rating,soybean; [6],0
same,"Plant response rating, Soybean",soybean; [7],0
same,"Plant response rating, Sugarbeets",sugar beet; [2],0
same,Sugarbeets plant response rating,sugar beet; [3],0
same,"Plant response rating, Sugarbeets",sugar beet; [4],0
same,Sugarbeets plant response rating,sugar beet; [5],0
same,Sugarbeets plant response rating,sugar beet; [6],0
same,"Plant response rating, Sugarbeets",sugar beet; [7],0
same,"Plant response rating, Velvetleaf",velvetleaf; [2],0
same,Velvetleaf plant response rating,velvetleaf; [3],0
same,"Plant response rating, Velvetleaf",velvetleaf; [4],0
same,Velvetleaf plant response rating,velvetleaf; [5],0
same,Velvetleaf plant response rating,velvetleaf; [6],0
same,"Plant response rating, Velvetleaf",velvetleaf; [7],0
same,"Plant response rating, Wheat",wheat; [2],0
same,Wheat plant response rating,wheat; [3],0
same,"Plant response rating, Wheat",wheat; [4],0
same,Wheat plant response rating,wheat; [5],0
same,Wheat plant response rating,wheat; [6],0
same,"Plant response rating, Wheat",wheat; [7],0
same,"Plant response rating, Wild oats",wild oat; [2],0
same,Wild oats plant response rating,wild oat; [3],0
same,"Plant response rating, Wild oats",wild oat; [4],0
same,Wild oats plant response rating,wild oat; [5],0
same,Wild oats plant response rating,wild oat; [6],0
same,"Plant response rating, Wild oats",wild oat; [7],0
same,Nutsedge plant response rating,purple nutsedge; [1],0
same,"Plant response rating, Nutsedge",purple nutsedge; [2],0
same,"Plant response rating, Nutsedge",purple nutsedge; [4],0
same,Nutsedge plant response rating,purple nutsedge; [5],0
same,Nutsedge plant response rating,purple nutsedge; [6],0
same,"Plant response rating, Nutsedge",purple nutsedge; [7],0
same,"Plant response rating, Rice (0 to 10 scale, 0 is no effect, 10 is complete control)",rice; [8],0
same,"Rice plant response rating (0 to 10 scale, 0 is no effect, 10 is complete control)",rice; [9],0
same,Rice plant response rating,rice; [10],0
same,Rice plant response rating,rice; [11],0
same,"Plant response rating, S. Flatsedge (0 to 10 scale, 0 is no effect, 10 is complete control)",smallflower flatsedge; [8],0
same,"S. Flatsedge plant response rating (0 to 10 scale, 0 is no effect, 10 is complete control)",smallflower flatsedge; [9],0
same,S. Flatsedge plant response rating,smallflower flatsedge; [10],0
same,S. Flatsedge plant response rating,smallflower flatsedge; [11],0
same,"Plant response rating, Ducksalad (0 to 10 scale, 0 is no effect, 10 is complete control)",duck salad; [8],0
same,"Ducksalad plant response rating (0 to 10 scale, 0 is no effect, 10 is complete control)",duck salad; [9],0
same,Ducksalad plant response rating,duck salad; [10],0
same,Ducksalad plant response rating,duck salad; [11],0
same,"Plant response rating, Barnyardgrass (0 to 10 scale, 0 is no effect, 10 is complete control)",bamyardgrass; [8],0
same,"Barnyardgrass plant response rating (0 to 10 scale, 0 is no effect, 10 is complete control)",bamyardgrass; [9],0
same,Barnyardgrass plant response rating,bamyardgrass; [10],0
same,Barnyardgrass plant response rating,bamyardgrass; [11],0
